Experimental data reported in patent US10106534B2 (CELGENE QUANTICEL RESEARCH, INC., priority 2014, dated 2018).
pIC50: −log10 of the molar value. Where a name gives a salt, the structure may show the parent alone.

Legend:
[1] = test system: KYSE-150 esophageal carcinoma cell line; assay: In vitro cell-based assay: cellular proliferation via BrdU incorporation (ELISA); design: species or system human; details: Homo sapiens, KYSE-150, 168 hours compound incubation
Experimental: The primary cellular assay for JMJD2C inhibition is an assay which measures cellular proliferation via Bromodeoxyuridine (BrdU) incorporation after 168 hours of compound incubation. Cell lines tested include the JMJD2C gene amplified cell line KYSE-150. This is a quantitative ELISA assay measuring DNA incorporation of BrdU during S-phase as a direct readout of cellular proliferation.
Assay Principle: This is a colorimetric immunoassay for the quantification of cell proliferation. Cells treated for 168 hours with test compounds are assayed for their ability to go through S-phase as a measure of their proliferative potential.
Assay Method: The human KYSE-150 (SMAD4 mut, TP53 mut) esophageal carcinoma cell line was seeded at 2,000 cells/well on a 96-well tissue culture treated plate. After an overnight incubation, cells were treated with compound in an 11-point dilution series with final concentrations ranging from 100 μM to 2 nM. Cells were then incubated in the presence of compound for 168 hours. After compound incubation the cells were assayed using a BrdU Cell Proliferation ELISA (Roche). The cells were first incubated with BrdU labeling reagent for 2 hours. After 2 hours, the BrdU incorporated cells were fixed and denatured, probed with an anti-BrdU-Peroxidase antibody for 1.5 hours and washed. Finally, a tetramethylbenzidine peroxidase substrate was added to each well for 15 minutes followed by a H2SO4 stop solution. The plate was read at 450 nm, and the raw optical density data was transferred into XLFit (IDBS) for IC50 calculation using the formula: fit=(D+((Vmax*(x^n))/((x^n)+(Km^n))))

JMJD2C = JMJD2C (Homo sapiens (Human), UniProt Q9H3R0); assay: In vitro enzyme inhibition assay for JMJD2C activity (TR-FRET); type: biochemical
How it was run: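 Demethylation product H3K9me2 quantified by TR-FRET ratio 665/615 after EDTA stop and 1 h with Eu-anti-H3K9me2 and streptavidin-APC; IC50 by curve fit. Reaction: 0.3 nM JMJD2C (AA 2-372, baculovirus), 2 μM α-ketoglutarate, 300 nM biotin-H3K9me3 peptide, pH 7.3 HEPES with Fe(II)/ascorbate, 30 min room temperature.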

Sequence of JMJD2C (Q9H3R0 2-372): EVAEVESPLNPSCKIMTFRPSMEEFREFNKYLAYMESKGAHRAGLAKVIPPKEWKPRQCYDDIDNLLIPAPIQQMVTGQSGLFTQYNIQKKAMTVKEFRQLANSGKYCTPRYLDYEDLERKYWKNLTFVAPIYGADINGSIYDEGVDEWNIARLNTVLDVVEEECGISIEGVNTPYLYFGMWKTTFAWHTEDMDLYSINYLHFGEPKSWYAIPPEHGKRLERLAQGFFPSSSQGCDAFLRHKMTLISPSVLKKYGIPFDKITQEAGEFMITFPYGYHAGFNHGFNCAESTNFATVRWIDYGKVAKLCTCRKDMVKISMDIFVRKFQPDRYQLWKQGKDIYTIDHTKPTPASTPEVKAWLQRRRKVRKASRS

Structure (SMILES)	pIC50 [1]	pIC50 (JMJD2C)
Cc1cccc(S(=O)(=O)c2ccc3c(c2)CCC[C@H]3CNc2cnccc2C(=O)O)c1 [Example 86, 3-({[(1R)-6-(3-methylbenzenesulfonyl)-1,2,3,4-tetrahydronaphthalen-1-yl]methyl}amino)pyridine-4-carboxylic acid]	< 5.00	6.00 to 7.00
O=C(O)c1ccncc1NCC1CCCc2cc(C3CCOCC3)ccc21 (centres unmarked) [Example 88, 3-({[6-(oxan-4-yl)-1,2,3,4-tetrahydronaphthalen-1-yl]methyl}amino)pyridine-4-carboxylic acid]	< 5.00	6.00 to 7.00
Cc1cc(-c2ccc3c(c2)CCCC3CNc2cnccc2C(=O)O)ccn1 (centres unmarked) [Example 89, 3-({[6-(2-methylpyridin-4-yl)-1,2,3,4-tetrahydronaphthalen-1-yl]methyl}amino)pyridine-4-carboxylic acid, hydrochloride]	< 5.00	6.00 to 7.00
CCc1ccc2c(c1)CCC[C@H]2CNc1cnccc1C(=O)O [Example 91, 3-({[(1R)-6-ethyl-1,2,3,4-tetrahydronaphthalen-1-yl]methyl}amino)pyridine-4-carboxylic acid]	5.00 to 6.00	6.00 to 7.00
O=C(O)c1ccncc1NCC1CCCc2c1ccc1c2OCC1 (centres unmarked) [Example 92, 3-({2H,3H,6H,7H,8H,9H-naphtho[1,2-b]furan-6-ylmethyl}amino)pyridine-4-carboxylic acid]	5.00 to 6.00	6.00 to 7.00
Cc1cc2c(cc1C)C(CNc1cnccc1C(=O)O)CCO2 (centres unmarked) [Example 93, 3-{[(6,7-dimethyl-3,4-dihydro-2H-1-benzopyran-4-yl)methyl]amino}pyridine-4-carboxylic acid]	5.00 to 6.00	6.00 to 7.00
COc1cc2c(cc1C)C(CNc1cnccc1C(=O)O)CCC2 (centres unmarked) [Example 94, 3-{[(6-methoxy-7-methyl-1,2,3,4-tetrahydronaphthalen-1-yl)methyl]amino}pyridine-4-carboxylic acid]	6.00 to 7.00	6.00 to 7.00
COc1cc2c(c(OC)c1)C(CNc1cnccc1C(=O)O)CCC2 (centres unmarked) [Example 95, 3-{[(6,8-dimethoxy-1,2,3,4-tetrahydronaphthalen-1-yl)methyl]amino}pyridine-4-carboxylic acid]	< 5.00	6.00 to 7.00
COc1cc2c(cc1F)[C@H](CNc1cnccc1C(=O)O)CCC2 [Example 97, 3-({[(1R)-7-fluoro-6-methoxy-1,2,3,4-tetrahydronaphthalen-1-yl]methyl}amino)pyridine-4-carboxylic acid]	5.00 to 6.00	6.00 to 7.00
Cc1ccccc1-c1ccc2c(c1)OCC[C@H]2CNc1cnccc1C(=O)O [Example 101, 3-({[(4R)-7-(2-methylphenyl)-3,4-dihydro-2H-1-benzopyran-4-yl]methyl}amino)pyridine-4-carboxylic acid]	≥ 7.00	6.00 to 7.00
COc1ccc(F)cc1-c1ccc2c(c1)OCC[C@H]2CNc1cnccc1C(=O)O [Example 102, 3-({[(4R)-7-(5-fluoro-2-methoxyphenyl)-3,4-dihydro-2H-1-benzopyran-4-yl]methyl}amino)pyridine-4-carboxylic acid]	6.00 to 7.00	6.00 to 7.00
CN(c1ccc(C#N)cc1)c1ccc2c(c1)CCC[C@H]2CNc1cnccc1C(=O)O [Example 103, 3-({[(1R)-6-[(4-cyanophenyl)(methyl)amino]-1,2,3,4-tetrahydronaphthalen-1-yl]methyl}amino)pyridine-4-carboxylic acid]	6.00 to 7.00	6.00 to 7.00
CN(c1ccc2c(c1)OCC[C@H]2CNc1cnccc1C(=O)O)c1ccc(F)cc1F [Example 104, 3-({[(4R)-7-[(2,4-difluorophenyl)(methyl)amino]-3,4-dihydro-2H-1-benzopyran-4-yl]methyl}amino)pyridine-4-carboxylic acid]	6.00 to 7.00	6.00 to 7.00
Cc1cccc(N(C)c2ccc3c(c2)OCC[C@H]3CNc2cnccc2C(=O)O)c1 [Example 105, 3-({[(4R)-7-[methyl(3-methylphenyl)amino]-3,4-dihydro-2H-1-benzopyran-4-yl]methyl}amino)pyridine-4-carboxylic acid]	≥ 7.00	6.00 to 7.00
O=C(O)c1ccncc1NC[C@@H]1CCCc2cc(N3CCCC3)ccc21 [Example 106, 3-({[(1R)-6-(pyrrolidin-1-yl)-1,2,3,4-tetrahydronaphthalen-1-yl]methyl}amino)pyridine-4-carboxylic acid]	6.00 to 7.00	6.00 to 7.00
CN(c1cc(F)cc(F)c1)c1ccc2c(c1)OCC[C@H]2CNc1cnccc1C(=O)O [Example 109, 3-({[(4R)-7-[(3,5-difluorophenyl)(methyl)amino]-3,4-dihydro-2H-1-benzopyran-4-yl]methyl}amino)pyridine-4-carboxylic acid]	6.00 to 7.00	6.00 to 7.00
CN(c1cccc(Cl)c1)c1ccc2c(c1)OCC[C@H]2CNc1cnccc1C(=O)O [Example 110, 3-({[(4R)-7-[(3-chlorophenyl)(methyl)amino]-3,4-dihydro-2H-1-benzopyran-4-yl]methyl}amino)pyridine-4-carboxylic acid]	≥ 7.00	5.00 to 6.00
Cc1ccccc1N(C)c1ccc2c(c1)OCC[C@H]2CNc1cnccc1C(=O)O [Example 111, 3-({[(4R)-7-[methyl(2-methylphenyl)amino]-3,4-dihydro-2H-1-benzopyran-4-yl]methyl}amino)pyridine-4-carboxylic acid]	6.00 to 7.00	6.00 to 7.00
COc1cc(N(C)c2ccc3c(c2)OCC[C@H]3CNc2cnccc2C(=O)O)ccc1F [Example 112, 3-({[(4R)-7-[(4-fluoro-3-methoxyphenyl)(methyl)amino]-3,4-dihydro-2H-1-benzopyran-4-yl]methyl}amino)pyridine-4-carboxylic acid]	5.00 to 6.00	6.00 to 7.00
COc1cc(N(C)c2ccc3c(c2)CCC[C@H]3CNc2cnccc2C(=O)O)ccc1F [Example 114, 3-({[(1R)-6-[(4-fluoro-3-methoxyphenyl)(methyl)amino]-1,2,3,4-tetrahydronaphthalen-1-yl]methyl}amino)pyridine-4-carboxylic acid]	6.00 to 7.00	6.00 to 7.00
CN(c1cccc(C#N)c1)c1ccc2c(c1)CCC[C@H]2CNc1cnccc1C(=O)O [Example 115, 3-({[(1R)-6-[(3-cyanophenyl)(methyl)amino]-1,2,3,4-tetrahydronaphthalen-1-yl]methyl}amino)pyridine-4-carboxylic acid]	6.00 to 7.00	6.00 to 7.00
COc1ccccc1-c1ccc2c(c1)OCC[C@H]2CNc1cnccc1C(=O)O [Example 116, 3-({[(4R)-7-(2-methoxyphenyl)-3,4-dihydro-2H-1-benzopyran-4-yl]methyl}amino)pyridine-4-carboxylic acid]	6.00 to 7.00	6.00 to 7.00
CN(c1cccc(C#N)c1)c1ccc2c(c1)OCC[C@H]2CNc1cnccc1C(=O)O [Example 117, 3-({[(4R)-7-[(3-cyanophenyl)(methyl)amino]-3,4-dihydro-2H-1-benzopyran-4-yl]methyl}amino)pyridine-4-carboxylic acid]	6.00 to 7.00	6.00 to 7.00
CN(c1ccc(C#N)cc1)c1ccc2c(c1)OCC[C@H]2CNc1cnccc1C(=O)O [Example 119, 3-({[(4R)-7-[(4-cyanophenyl)(methyl)amino]-3,4-dihydro-2H-1-benzopyran-4-yl]methyl}amino)pyridine-4-carboxylic acid]	6.00 to 7.00	6.00 to 7.00
CN(CC1CC1)c1ccc2c(c1)CCC[C@H]2CNc1cnccc1C(=O)O [Example 120, 3-({[(1R)-6-[(cyclopropylmethyl)(methyl)amino]-1,2,3,4-tetrahydronaphthalen-1-yl]methyl}amino)pyridine-4-carboxylic acid]	6.00 to 7.00	6.00 to 7.00
COc1cccc(N(C)c2ccc3c(c2)CCC[C@H]3CNc2cnccc2C(=O)O)n1 [Example 121, 3-({[(1R)-6-[(6-methoxypyridin-2-yl)(methyl)amino]-1,2,3,4-tetrahydronaphthalen-1-yl]methyl}amino)pyridine-4-carboxylic acid]	≥ 7.00	6.00 to 7.00
N#Cc1ccccc1-c1ccc2c(c1)OCC[C@H]2CNc1cnccc1C(=O)O [Example 124, 3-({[(4R)-7-(2-cyanophenyl)-3,4-dihydro-2H-1-benzopyran-4-yl]methyl}amino)pyridine-4-carboxylic acid]	5.00 to 6.00	6.00 to 7.00
CN(c1ccc2c(c1)CCC[C@H]2CNc1cnccc1C(=O)O)c1ccn(C)n1 [Example 125, 3-({[(1R)-6-[methyl(1-methyl-1H-pyrazol-3-yl)amino]-1,2,3,4-tetrahydronaphthalen-1-yl]methyl}amino)pyridine-4-carboxylic acid]	6.00 to 7.00	6.00 to 7.00
